Assay results published in US20200306255A1, “COMPOSITIONS AND METHODS FOR TREATING NIEMANN PICK C DISEASE” (AI Therapeutics, Inc., priority 2016, published 2020).

Experiments:
[1] = plasma protein binding, human; format: in vitro ADME; settings: read-out: bound to plasma proteins
Method: (§1) In embodiments, the apilimod compound for use in the compositions and methods of the invention is the free base or dimesylate salt form, MW 610.7 (dimesylate salt); tPSA 83.1; pKa 5.39 (±0.03), 4.54 (±0.27); HBD 1. […] In embodiments, the apilimod compound for use in the compositions and methods of the invention is an active metabolite of apilimod. Six primary metabolites were identified in rat and human microsomal and hepatocyte stability studies. […] Tmax generally occurred within 1 or 2 hours after the oral dose, consistent with the […] of this compound from the circulation. […] The primary metabolites are short-lived in circulation. Both apilimod free base and the dimesylate salt are highly bound (>99%) to rat, dog and human plasma proteins.

[2] = system: NPC1 fibroblasts; experiment: HexB release lysosome exocytosis assay; format: cell-based, human; settings: 24 hours treatment; FIG. 3
Method: NPC1 mutant patient skin fibroblasts have been used as a robust cellular model of NPC1 disease (Chen 2010, Xu M et al 2012, Xu M et al 2014) and these cells display a number of NPC-related defects including intracellular accumulation of cholesterol other lipids.
FIG. 3: the rate of lysosome exocytosis can be monitored by the measurement of the release of lysosomal proteins such as Hexosaminidase Subunit Beta(HexB). In FIG. 3, NPC1 fibroblasts were treated with apilimod for 24 hours, the HexB release lysosome exocytosis assay was performed as previously described (Xu et al 2012). The rate of HexB release from NPC1 was increased by apilimod treatment providing evidence for an increased rate of lysosome exocytosis likely leading to cholesterol lowering in NPC1 cells.
Shown in the figure are fluorescence microscopy images of the NPC1 cells treated with 0, 78, 156, and 625 nM apilimod. […] In FIG. 3, apilimod treatment of NPC1 fibroblasts can enhance the rate of lysosome exocytosis as one of the mechanisms for cells to clear lysosome storage of cholesterol and lipid accumulations in NPC.

[3] = system: osteoclast formation; settings: in vitro assay; from WO 2005/000404; read-out: inhibitory activity against osteoclast formation, IC50; cited from earlier work
[4] = plasma protein binding, rat; format: in vitro ADME
Method: as §1

[5] = target: CYP3A4 (Homo sapiens, UniProt P08684); experiment: reaction phenotyping studies, CYP3A4; format: in vitro ADME
Chain of CYP3A4 (P08684 whole entry): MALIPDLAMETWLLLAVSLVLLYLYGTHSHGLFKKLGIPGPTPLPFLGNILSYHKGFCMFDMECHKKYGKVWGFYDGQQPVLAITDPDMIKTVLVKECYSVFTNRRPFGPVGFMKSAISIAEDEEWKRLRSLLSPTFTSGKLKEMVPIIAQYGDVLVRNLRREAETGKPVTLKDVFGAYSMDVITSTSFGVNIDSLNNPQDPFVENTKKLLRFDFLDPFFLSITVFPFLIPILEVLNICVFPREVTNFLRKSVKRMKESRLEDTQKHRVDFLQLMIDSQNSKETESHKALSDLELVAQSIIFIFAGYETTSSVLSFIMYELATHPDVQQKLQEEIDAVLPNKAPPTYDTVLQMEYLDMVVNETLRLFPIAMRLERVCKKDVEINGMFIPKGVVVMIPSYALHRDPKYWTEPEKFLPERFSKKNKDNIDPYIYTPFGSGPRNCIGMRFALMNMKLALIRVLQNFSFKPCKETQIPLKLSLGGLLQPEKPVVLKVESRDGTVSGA
Method: as §1

[6] = plasma protein binding, dog; format: in vitro ADME; settings: read-out: bound to plasma proteins
Method: as §1

fraction unbound [1]: < 0.01
fraction unbound [4]: < 0.01
contribution of CYP3A4 to metabolism [5]: contribute to metabolism
fraction unbound [6]: < 0.01
SMILES: Cc1cccc(/C=N/Nc2cc(N3CCOCC3)nc(OCCc3ccccn3)n2)c1 [apilimod]
rate of HexB release (lysosome exocytosis) [2]: increased
IC50 [3]: 15 nM
